Legend:
WT STING [1] = target: T1, WT STING (Homo sapiens, UniProt Q86WV6, H232R); assay: Digitonin assay using 293T wtSTING-FL reporter cells; assay type: cell-based; settings: 293T wtSTING-FL cells; 30 minutes in Digitonin buffer, then 5 hours; ISRE firefly luciferase reporter; 8-point dose-response curve; read-out: Digitonin assay EC50 (μmol · l^−1) WT STING
Target sequence in this assay (Q86WV6 whole entry H232R, the tested form may be a part): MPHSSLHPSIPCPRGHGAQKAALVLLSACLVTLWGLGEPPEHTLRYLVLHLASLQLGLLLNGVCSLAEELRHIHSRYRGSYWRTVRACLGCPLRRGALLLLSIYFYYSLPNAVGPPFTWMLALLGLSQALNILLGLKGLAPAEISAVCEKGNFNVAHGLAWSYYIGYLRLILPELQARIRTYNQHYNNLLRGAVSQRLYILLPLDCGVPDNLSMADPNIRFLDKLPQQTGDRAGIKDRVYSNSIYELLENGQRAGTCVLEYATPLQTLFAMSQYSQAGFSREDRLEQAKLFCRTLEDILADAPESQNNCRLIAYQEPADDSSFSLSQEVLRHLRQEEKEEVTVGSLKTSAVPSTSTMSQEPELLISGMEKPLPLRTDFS

WT STING [2] = target: T1, WT STING; assay: Differential Scanning Fluorimetry with WT STING; assay type: binding; design: truncated human WT STING or AQ STING (amino acid residues 140-343); 8xHis (N, cleaved yes); SUMO (N, cleaved yes); made in house; host or cells: E. coli Rosetta-gami B (DE3); settings: thermal shift vs STING apoprotein; 150 μM CDN; 0.1 mg/ml truncated human WT STING; SYPRO Orange; read-out: DSF ΔTm (° C.) WT STING
Target sequence in this assay (Q86WV6 140-343 H232R): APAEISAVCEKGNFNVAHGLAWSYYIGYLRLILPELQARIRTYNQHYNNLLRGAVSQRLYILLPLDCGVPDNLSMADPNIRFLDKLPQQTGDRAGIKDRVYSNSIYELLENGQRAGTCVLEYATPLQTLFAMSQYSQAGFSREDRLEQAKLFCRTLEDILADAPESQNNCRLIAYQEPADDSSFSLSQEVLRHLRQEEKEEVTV

AQ STING (G230A-R293Q) = target: T2, AQ STING (G230A-R293Q) (Homo sapiens, UniProt Q86WV6, G230A/H232R/R293Q); assay: Differential Scanning Fluorimetry with AQ STING; assay type: binding; settings: thermal shift vs STING apoprotein; 150 μM CDN; 0.1 mg/ml truncated human AQ STING; SYPRO Orange; read-out: DSF ΔTm (° C.) AQ STING
T2 construct: truncated human WT STING or AQ STING (amino acid residues 140-343); 8xHis (N, cleaved yes); SUMO (N, cleaved yes); made in house; host or cells: E. coli Rosetta-gami B (DE3)
T2 sequence (Q86WV6 140-343 G230A/H232R/R293Q): as the sequence (Q86WV6 140-343 H232R) above, with G91A, R154Q counted along it

EC50 (WT STING [1]) [nM] | ΔTm at 150 µM (WT STING [2]) [°C] | ΔTm at 150 µM (AQ STING (G230A-R293Q)) [°C] | SMILES
12 | 18.1 | 24 | Nc1nc2c(ncn2[C@@H]2O[C@@H]3OCP(=O)(O)O[C@H]4[C@@H](O)[C@H](n5cnc6c(N)ncnc65)O[C@@H]4COP(=O)(O)O[C@@H]2[C@@H]3F)c(=O)[nH]1 [Compound 60, (1S,6R,8R,9R,10S,15R,17R,18S)-17-(2-amino-6-oxo-6,9-dihydro-1H-purin-9-yl)-8-(6-amino-9H-purin-9-yl)-18-fluoro-3,9,12-trihydroxy-2,4,7,11,14,16-hexaoxa-3λ^5,12λ^5-diphosphatricyclo[13.2.1.0^6,10]octadecane-3,12-dione]
27 | 10 | 17.6 | Nc1nc2c(nnn2[C@@H]2O[C@@H]3OCP(=O)(O)O[C@@H]4[C@@H](OCP(=O)(O)O[C@@H]2[C@@H]3O)O[C@@H](n2cnc3c(N)ncnc32)[C@@H]4O)c(=O)[nH]1 [Compound 61, (1R,6R,8R,9R,10S,15R,17R,18S)-17-{5-amino-7-oxo-3H,6H,7H-[1,2,3]triazolo[4,5-d]pyrimidin-3-yl}-8-(6-amino-9H-purin-9-yl)-3,9,12,18-tetrahydroxy-2,5,7,11,14,16-hexaoxa-3λ^5,12λ^5-diphosphatricyclo[13.2.1.0^6,10]octadecane-3,12-dione]
50 | 16 | 22.9 | Nc1nc2c(nnn2[C@@H]2O[C@@H]3OCP(=O)(O)O[C@H]4[C@H](O)[C@H](n5cnc6c(N)ncnc65)O[C@@H]4COP(=O)(O)O[C@@H]2[C@@H]3O)c(=O)[nH]1 [Compound 62, (1R,6R,8R,9S,10S,15R,17R,18S)-17-{5-amino-7-oxo-3H,6H,7H-[1,2,3]triazolo[4,5-d]pyrimidin-3-yl}-8-(6-amino-9H-purin-9-yl)-3,9,12,18-tetrahydroxy-2,4,7,11,14,16-hexaoxa-3λ^5,12λ^5-diphosphatricyclo[13.2.1.0^6,10]octadecane-3,12-dione]
8 | 19.5 | 26.4 | Nc1nc2c(nnn2[C@@H]2O[C@@H]3OCP(=O)(O)OC4C(F)[C@H](n5cnc6c(N)ncnc65)O[C@@H]4COP(=O)(O)OC2C3O)c(=O)[nH]1 (stereo partly drawn) [Compound 63, (6R,8R,15R,17R)-17-{5-amino-7-oxo-3H,6H,7H-[1,2,3]triazolo[4,5-d]pyrimidin-3-yl}-8-(6-amino-9H-purin-9-yl)-9-fluoro-3,12,18-trihydroxy-2,4,7,11,14,16-hexaoxa-3λ^5,12λ^5-diphosphatricyclo[13.2.1.0^6,10]octadecane-3,12-dione]

— US11203610B2, “2′3′ cyclic dinucleotides with phosphonate bond activating the sting adaptor protein” (INSTITUTE OF ORGANIC CHEMISTRY AND BIOCHEMISTRY ASCR, V.V.I., priority 2017, dated 2021)
